Measured values reported in patent US20250243176A1, “(S)-1-(1-ACRYLOYLPIPERIDIN-3-YL)-2-FLUORO-5,6,7,8,9,10-HEXAHYDROCYCLO HEPTA[B]INDOLE-4-CARBOXAMIDE, AND RELATED CRYSTALLINE FORMS, COMPOSITIONS, AND METHODS THEREOF” (GB005, Inc., priority 2021, published 2025).
Values after ≈ are worked out from the molar mass of the structure shown.

What was measured:
[1] = Solubility testing in vehicle, HPLC (Form III); assay type: physicochemical; details: thermodynamic from solid
Experimental: In each of the following studies (Examples 6-10), the starting material was Compound 1 (free form, not salt) Form III. The material was a light yellow solid, comprising non-hygroscopic irregular shaped crystal with aggregation. The same analytical methods as described in Example 1 were employed.
Vehicle solutions were prepared as follows:
Solubility was determined at room temperature for 24 and 72 hours and at 45° C. for 4 and 24 hours. About 30/100 mg Compound 1 was added to vehicle (2 mL) and the mixture stirred at room temperature for 24 or 72 hours. The suspensions were filtered or centrifuged, and the filtrate analyzed by HPLC.

[2] = target: T1, Bruton's tyrosine kinase (BTK) (Homo sapiens, UniProt Q06187); assay: BTK cell-free enzymatic assay; assay type: biochemical
T1 construct: from tissue; host or cells: whole blood
Source text: (S)-1-(1-acryloylpiperidin-3-yl)-2-fluoro-5,6,7,8,9,10-hexahydrocyclohepta[b]indole-4-carboxamide, hereinafter referred to as “Compound 1”, is an orally available, selective, potent inhibitor of Bruton's tyrosine kinase (BTK), thereby providing potential treatment options in BTK-driven diseases. The potency of Compound 1 for BTK inhibition is in the nM range in both cell-free enzymatic and whole blood functional assays.

[3] = Further solubility testing in excipients, HPLC; assay type: physicochemical
Experimental: Compound 1 (˜0.5 g) was added to each excipient until visually saturated. The mixtures were incubated on a temperature-controlled mixer with glass beads to facilitating mixing, for at least 48 hours at room temperature (liquid excipients) or 40° C. (semisolid excipients). The samples were then centrifuged using 0.45 μm PVDF filter to separate the liquid and solid portions. The amount of dissolved compound in the filtrate was quantified by HPLC. XRPD analysis of any solid powder confirmed there was no change in form. The solubility results are presented in Table 16 and show Compound 1 had high solubility (>30 mg/g) in most of the screened excipients.

[4] = oil or lipid, Phosal 50PG, RT, pH 5.8, loading 50 mg/mL
[5] = oil or lipid, Sesame oil, RT, pH 6.5, loading 15 mg/mL

T1 sequence (Q06187 whole entry, species assumed): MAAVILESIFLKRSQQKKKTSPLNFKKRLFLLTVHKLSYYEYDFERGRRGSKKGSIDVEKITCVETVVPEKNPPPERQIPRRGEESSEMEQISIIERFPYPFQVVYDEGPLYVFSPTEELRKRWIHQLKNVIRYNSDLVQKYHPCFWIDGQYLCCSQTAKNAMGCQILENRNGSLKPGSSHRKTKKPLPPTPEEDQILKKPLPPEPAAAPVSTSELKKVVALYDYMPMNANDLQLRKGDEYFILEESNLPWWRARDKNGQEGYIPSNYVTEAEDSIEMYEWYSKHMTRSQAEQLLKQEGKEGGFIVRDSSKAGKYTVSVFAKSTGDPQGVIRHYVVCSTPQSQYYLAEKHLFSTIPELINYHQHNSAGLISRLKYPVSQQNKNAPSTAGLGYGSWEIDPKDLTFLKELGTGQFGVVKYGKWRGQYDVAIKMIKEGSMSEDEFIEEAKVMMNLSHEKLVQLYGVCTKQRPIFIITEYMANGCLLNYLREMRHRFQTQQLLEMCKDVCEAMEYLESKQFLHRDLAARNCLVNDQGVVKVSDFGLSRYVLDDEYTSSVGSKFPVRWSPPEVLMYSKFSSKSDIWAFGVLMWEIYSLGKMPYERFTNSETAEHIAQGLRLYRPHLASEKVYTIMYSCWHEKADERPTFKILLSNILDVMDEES

- solubility at 4 h ([1]; oil or lipid, Oleic acid, 45° C., pH 3.0, loading 15 mg/mL): 8.5 mg/mL (≈ 22.2 mM)
- solubility at 24 h ([1]; oil or lipid, Oleic acid, 45° C., pH 3.3, loading 15 mg/mL): 14 mg/mL (≈ 36.5 mM)
- solubility at 24 h ([1]; oil or lipid, Olive oil, RT, pH 5.2, loading 15 mg/mL): 0.44 mg/mL (≈ 1.15 mM)
- solubility at 72 h ([1]; oil or lipid, Olive oil, RT, pH 5.8, loading 15 mg/mL): 0.91 mg/mL (≈ 2.37 mM)
- solubility at 24 h [1, 4]: 15.7 mg/mL (≈ 40.8 mM)
- solubility at 72 h [1, 4]: 23.8 mg/mL (≈ 62 mM)
- solubility at 24 h [1, 5]: 0.73 mg/mL (≈ 1.9 mM)
- solubility at 72 h [1, 5]: 0.76 mg/mL (≈ 1.98 mM)
- solubility at 4 h ([1]; oil or lipid, phsal 53 MCT, 45° C., pH 5.3, loading 15 mg/mL): 6.4 mg/mL (≈ 16.7 mM)
- solubility at 24 h ([1]; oil or lipid, phsal 53 MCT, 45° C., pH 5.1, loading 15 mg/mL): > 15 mg/mL
- solubility at 24 h ([1]; organic solvent or mixture, Cremophor EL, RT, pH 8.5, loading 50 mg/mL): 19.5 mg/mL (≈ 50.9 mM)
- solubility at 72 h ([1]; organic solvent or mixture, Cremophor EL, RT, pH 8.3, loading 50 mg/mL): 33 mg/mL (≈ 86.1 mM)
- solubility at 4 h ([1]; organic solvent or mixture, Cremophor HS 15, 45° C., pH 7.6, loading 50 mg/mL): > 50 mg/mL
- solubility at 24 h ([1]; organic solvent or mixture, Cremophor HS 15, 45° C., pH 7.5, loading 50 mg/mL): > 50 mg/mL
- solubility at 24 h ([1]; organic solvent or mixture, Cremophor RH40, 45° C., loading 50 mg/mL): 33 mg/mL (≈ 86.1 mM)
- solubility at 24 h ([1]; organic solvent or mixture, EtOH, RT, pH 5.9, loading 50 mg/mL): 19.4 mg/mL (≈ 50.6 mM)
- solubility at 72 h ([1]; organic solvent or mixture, EtOH, RT, pH 6.2, loading 50 mg/mL): 27.6 mg/mL (≈ 72 mM)
- solubility at 4 h ([1]; organic solvent or mixture, PEG400/TPGS(3/1), 45° C., pH 6.6, loading 50 mg/mL): > 50 mg/mL
- solubility at 24 h ([1]; organic solvent or mixture, PEG400/TPGS(3/1), 45° C., pH 6.1, loading 50 mg/mL): > 50 mg/mL
- solubility at 24 h ([1]; organic solvent or mixture, PEG400, RT, pH 5.6, loading 50 mg/mL): > 50 mg/mL
- solubility at 72 h ([1]; organic solvent or mixture, PEG400, RT, pH 6.7, loading 50 mg/mL): > 50 mg/mL
- solubility at 24 h ([1]; organic solvent or mixture, PG, RT, pH 5.1, loading 50 mg/mL): 48.2 mg/mL (≈ 126 mM)
- solubility at 72 h ([1]; organic solvent or mixture, PG, RT, pH 5.2, loading 50 mg/mL): > 50 mg/mL
- potency for BTK inhibition [2]: nM range
- Solubility ([3]; Capryol PGMC, at least 48 hours, RT (liquid) or 40° C. (semisolid excipients)): 38.1 mg/g
- Solubility ([3]; Gelucire 44/14, at least 48 hours, RT (liquid) or 40° C. (semisolid excipients)): 48.9 mg/g
- Solubility ([3]; Gelucire 50/13, at least 48 hours, RT (liquid) or 40° C. (semisolid excipients)): 45.9 mg/g
- Solubility ([3]; Kolliphor ELP, at least 48 hours, RT (liquid) or 40° C. (semisolid excipients)): 36.5 mg/g
- Solubility ([3]; Kolliphor HS 15, at least 48 hours, RT (liquid) or 40° C. (semisolid excipients)): 53.6 mg/g
- Solubility ([3]; Kolliphor RH40, at least 48 hours, RT (liquid) or 40° C. (semisolid excipients)): 52.4 mg/g
- Solubility ([3]; Labrafil M 1944 CS, at least 48 hours, RT (liquid) or 40° C. (semisolid excipients)): 10.7 mg/g
- Solubility ([3]; Labrafil M 2125 CS, at least 48 hours, RT (liquid) or 40° C. (semisolid excipients)): 9.3 mg/g
- Solubility ([3]; Labrasol ALF, at least 48 hours, RT (liquid) or 40° C. (semisolid excipients)): 68.1 mg/g
- Solubility ([3]; Lauroglycol FCC, at least 48 hours, RT (liquid) or 40° C. (semisolid excipients)): 16.0 mg/g
- Solubility ([3]; Maisine CC, at least 48 hours, RT (liquid) or 40° C. (semisolid excipients)): 16.7 mg/g
- Solubility ([3]; Masester E8120, at least 48 hours, RT (liquid) or 40° C. (semisolid excipients)): 65.3 mg/g
- Solubility ([3]; Miglyol 812N, at least 48 hours, RT (liquid) or 40° C. (semisolid excipients)): 2.9 mg/g
- Solubility ([3]; Oleic Acid, at least 48 hours, RT (liquid) or 40° C. (semisolid excipients)): 21.0 mg/g
- Solubility ([3]; PEG 400, at least 48 hours, RT (liquid) or 40° C. (semisolid excipients)): 77.3 mg/g
- Solubility ([3]; Peceol, at least 48 hours, RT (liquid) or 40° C. (semisolid excipients)): 22.8 mg/g
- Solubility ([3]; Sesame Oil, at least 48 hours, RT (liquid) or 40° C. (semisolid excipients)): 1.9 mg/g
- Solubility ([3]; Span 80, at least 48 hours, RT (liquid) or 40° C. (semisolid excipients)): 12.2 mg/g
- Solubility ([3]; Transcutol HP, at least 48 hours, RT (liquid) or 40° C. (semisolid excipients)): 118.6 mg/g
- Solubility ([3]; Tween 20, at least 48 hours, RT (liquid) or 40° C. (semisolid excipients)): 48.6 mg/g
- Solubility ([3]; Tween 80, at least 48 hours, RT (liquid) or 40° C. (semisolid excipients)): 49.0 mg/g
- Solubility ([3]; Vitamin E TPGS, at least 48 hours, RT (liquid) or 40° C. (semisolid excipients)): 40.8 mg/g
- Solubility ([3]; in most of the screened excipients): > 30 mg/g
Structure (SMILES): C=CC(=O)N1CCC[C@@H](c2c(F)cc(C(N)=O)c3[nH]c4c(c23)CCCCC4)C1 [Compound 1, (S)-1-(1-acryloylpiperidin-3-yl)-2-fluoro-5,6,7,8,9,10-hexahydrocyclohepta[b]indole-4-carboxamide]
